According to PubChem BioAssay (NCI):
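These data come from cells grown in 96-well plates and exposed to compound for 48 hours at five concentrations. The concentration for 50% growth inhibition is given as GI50. TGI: total growth inhibition.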

Tests used:
Test in all cases: NCI tumour cell line growth inhibition, 48 h
[1] = system: KM12 colon
[2] = system: A498 renal
[3] = system: HL-60(TB) leukemia
[4] = system: A549 NSCLC
[5] = system: SF-268 CNS
[6] = system: OVCAR-3 ovarian
[7] = system: SK-MEL-28 melanoma
[8] = system: SK-MEL-5 melanoma
[9] = system: HCC-2998 colon
[10] = system: HOP-92 NSCLC
[11] = system: LOX IMVI melanoma
[12] = system: U251 CNS
[13] = system: BT-549 breast
[14] = system: NCI-H226 lung
[15] = system: SNB-75 CNS
[16] = system: SF-539 CNS
[17] = system: M14 melanoma
[18] = system: SW-620 colon
[19] = system: NCI-H23 lung
[20] = system: MCF7 breast
[21] = system: EKVX NSCLC
[22] = system: OVCAR-8 ovarian
[23] = system: 786-0 renal
[24] = system: HS 578T breast
[25] = system: PC-3 prostate
[26] = system: UO-31 renal
[27] = system: SNB-19 CNS
[28] = system: HT29 colon
[29] = system: SK-OV-3 ovarian
[30] = system: NCI/ADR-RES ovarian
[31] = system: SN12C renal
[32] = system: OVCAR-5 ovarian
[33] = system: CAKI-1 renal
[34] = system: RPMI-8226 leukemia
[35] = system: HCT-15 colon
[36] = system: K-562 leukemia
[37] = system: TK-10 renal
[38] = system: MOLT-4 leukemia
[39] = system: UACC-62 melanoma
[40] = system: NCI-H460 lung
[41] = system: IGROV1 ovarian
[42] = system: CCRF-CEM leukemia
[43] = system: ACHN renal
[44] = system: SR leukemia
[45] = system: OVCAR-4 ovarian
[46] = system: DU-145 prostate
[47] = system: NCI-H522 lung
[48] = system: RXF 393 renal
[49] = system: SK-MEL-2 melanoma
[50] = system: MALME-3M melanoma
[51] = system: HOP-62 NSCLC
[52] = system: SF-295 CNS
[53] = system: HCT-116 colon
[54] = system: UACC-257 melanoma
[55] = system: MDA-MB-435
[56] = system: COLO 205 colon
[57] = system: MDA-MB-231 breast

CC1C2=C(CC(C)(C)CC2=O)NC2=C1C(=O)CC(C)(C)C2
TGI [1]: > 100 µM
TGI [2]: > 100 µM
TGI [3]: > 100 µM
TGI [4]: > 100 µM
TGI [5]: > 100 µM
TGI [6]: > 100 µM
TGI [7]: > 100 µM
TGI [8]: > 100 µM
TGI [9]: > 100 µM
TGI [10]: > 100 µM
TGI [11]: > 100 µM
TGI [12]: > 100 µM
TGI [13]: > 100 µM
TGI [14]: > 100 µM
TGI [15]: > 100 µM
TGI [16]: > 100 µM
TGI [17]: > 100 µM
TGI [18]: > 100 µM
TGI [19]: > 100 µM
TGI [20]: > 100 µM
TGI [21]: > 100 µM
TGI [22]: > 100 µM
TGI [23]: > 100 µM
TGI [24]: > 100 µM
TGI [25]: > 100 µM
TGI [26]: > 100 µM
TGI [27]: > 100 µM
TGI [28]: > 100 µM
TGI [29]: > 100 µM
TGI [30]: > 100 µM
TGI [31]: > 100 µM
TGI [32]: > 100 µM
TGI [33]: > 100 µM
TGI [34]: > 100 µM
TGI [35]: > 100 µM
TGI [36]: > 100 µM
TGI [37]: > 100 µM
TGI [38]: > 100 µM
TGI [39]: > 100 µM
TGI [40]: > 100 µM
TGI [41]: > 100 µM
TGI [42]: > 100 µM
TGI [43]: > 100 µM
TGI [44]: > 100 µM
TGI [45]: > 100 µM

Cc1ccc(S(=O)(=O)OC[C@]23CCC(C)(C)C[C@H]2C2=CC[C@@H]4[C@@]5(C)CCCNC(C)(C)[C@@H]5CC[C@@]4(C)[C@]2(C)CC3)cc1
GI50 [2]: 5.99 µM
TGI [2]: 21.4 µM
GI50 [46]: 1.79 µM
TGI [46]: 3.37 µM
GI50 [5]: 2.32 µM
TGI [5]: 8.44 µM
GI50 [47]: 1.69 µM
TGI [47]: 3.38 µM
GI50 [15]: 1.48 µM
TGI [15]: 2.94 µM
GI50 [48]: 1.38 µM
TGI [48]: 2.78 µM
GI50 [16]: 1.71 µM
TGI [16]: 3.15 µM
GI50 [24]: 1.82 µM
TGI [24]: 4.08 µM
GI50 [49]: 2.19 µM
TGI [49]: 4.83 µM
GI50 [26]: 1.29 µM
TGI [26]: 2.68 µM
GI50 [29]: 1.76 µM
TGI [29]: 3.26 µM
GI50 [33]: 1.45 µM
TGI [33]: 2.82 µM
GI50 [37]: 1.77 µM
TGI [37]: 3.33 µM
GI50 [43]: 1.69 µM
TGI [43]: 3.07 µM

Cc1ccc(N/C(Sc2ccccc2)=C(/C(Cl)=C(Cl)Cl)[N+](=O)[O-])c(C)c1
TGI [1]: 32.2 µM
TGI [2]: 53.4 µM
TGI [3]: 56.2 µM
TGI [4]: > 81.5 µM
TGI [46]: > 87.1 µM
TGI [5]: 29.5 µM
TGI [7]: 41.2 µM
TGI [8]: 81.7 µM
TGI [9]: 36 µM
TGI [10]: 45.8 µM
TGI [50]: 34 µM
TGI [11]: 28.2 µM
TGI [12]: 26.7 µM
TGI [13]: 29.1 µM
TGI [47]: 42.9 µM
TGI [51]: 59.7 µM
TGI [14]: 55.4 µM
TGI [16]: 45.4 µM
TGI [17]: 59.7 µM
TGI [18]: 36.7 µM
TGI [19]: 68.7 µM
TGI [20]: 28 µM
TGI [21]: 65.1 µM
TGI [22]: > 100 µM
TGI [23]: 39.1 µM
TGI [24]: > 100 µM
TGI [25]: 36.1 µM
TGI [49]: 36.9 µM
TGI [52]: 47 µM
TGI [27]: 54 µM
TGI [28]: 35.6 µM
TGI [53]: 30.8 µM
TGI [29]: 99.2 µM
TGI [54]: 38.2 µM
TGI [55]: 27.7 µM
TGI [56]: 35.3 µM
TGI [30]: 70.4 µM
TGI [31]: 43.1 µM
TGI [32]: 23 µM
TGI [33]: 30.7 µM
TGI [34]: 64.8 µM
TGI [57]: 33.2 µM
TGI [35]: 32.3 µM
TGI [36]: 45.8 µM
TGI [37]: > 100 µM
TGI [38]: > 100 µM
TGI [39]: 62.2 µM
TGI [40]: 32.7 µM
TGI [41]: 40.2 µM
TGI [42]: 76.1 µM
TGI [43]: > 100 µM
TGI [44]: > 100 µM
TGI [45]: > 100 µM
